Data on 18 compounds can be found in ChEMBL document CHEMBL3611975, “New carbocyclic N(6)-substituted adenine and pyrimidine nucleoside analogues with a bicyclo[2.2.1]heptane fragment as sugar moiety; synthesis, antiviral, anticancer activity and X-ray crystallography” (Bioorg Med Chem, 2015).

The nature of data set [1]: Cytotoxicity against MDCK cells assessed as cell viability after 48 hrs by MTT assay. To be noted: dog, read-out: CTD50. The data set is classed as cell-based, Canis lupus familiaris.
Data set [2] is described as follows: Selectivity index, ratio of CTD50 for MDCK cells to EC50 for Influenza A virus (A/Puerto Rico/8/1934(H1N1)). The data set is classed as toxicity, cell-based. The note with it: dog.
In data set [3] the test system is Influenza A virus. Nature of the data set: Antiviral activity against Influenza A virus (A/Puerto Rico/8/1934(H1N1)) infected in MDCK cells assessed as decrease in virus titer after 48 hrs by MTT assay. The data set is classed as functional, organism-based. (In general: Formazan colour is commonly taken as a measure of viable cells.)
A short description of data set [4]: Cytotoxicity against African green monkey Vero cells assessed as cell viability after 72 hrs by MTT assay. The data set is classed as cell-based. To be noted: chlorocebus sabaeus, read-out: CTD50.
Data set [5] relates to Coxsackievirus B4. Nature of the data set: Antiviral activity against Human coxsackievirus B4 Powers infected in African green monkey Vero cells assessed as decrease in virus titer after 72 hrs by MTT assay. In kind it is functional, organism-based. To be noted: Enterovirus B.
The nature of data set [6]: Selectivity index, ratio of CTD50 for African green monkey Vero cells to EC50 for Human coxsackievirus B4 Powers. In kind it is toxicity, cell-based.

The term EC50 denotes the concentration giving half of the maximal effect. Take `OC[C@@H](Cc1ccccc1)Nc1ncnc2c1ncn2[C@H]1C[C@H]2[C@H](CO)[C@@H]1C[C@@H]2Cl`: the CC50 at 48 h in data set [1] stood at 410 µM. Also, the selectivity ratio in data set [2] is 3; in data set [6], 141. For the same compound, the EC50 came out at 131 µM in data set [3] and 1 µM in data set [5]. For the same compound, the CC50 at 72 h in data set [4] was 197 µM.

For the compound `CCN(CC)CCNc1ncnc2c1ncn2[C@H]1C[C@H]2[C@H](CO)[C@@H]1C[C@@H]2Cl`, in data set [1], the CC50 at 48 h amounted to 731 µM. Moreover, the figures for the selectivity ratio in data set [2] and in data set [6] were 36 and 2, respectively. The EC50 in data set [3] was 20 µM; in data set [5], more than 84 µM. The CC50 at 72 h in data set [4] stood at 175 µM.

As to `OC[C@@H]1[C@@H]2C[C@H](Cl)[C@H]1C[C@@H]2Nc1ncnc2c1ncn2[C@H]1C[C@H]2[C@H](CO)[C@@H]1C[C@@H]2Cl`, in data set [1], the CC50 at 48 h is more than 704 µM. For the same compound, the results for the selectivity ratio in data set [2] and in data set [6] were more than 73 and 3, respectively. In addition, the EC50 in data set [3] is 10 µM; in data set [5] it was 61 µM. Also, the CC50 at 72 h in data set [4] amounted to 213 µM.

For `CN1CCN(c2ncnc3c2ncn3[C@H]2C[C@H]3[C@H](CO)[C@@H]2C[C@@H]3Cl)CC1`, in data set [1], the CC50 at 48 h was determined as 1000 µM. Moreover, the selectivity ratio amounted to 39 in data set [2] and 3 in data set [6]. For the same compound, the EC50 was 25 µM in data set [3] and more than 87 µM in data set [5]. The CC50 at 72 h in data set [4] came to 227 µM.

Regarding `CN1CCN(Nc2ncnc3c2ncn3[C@H]2C[C@H]3[C@H](CO)[C@@H]2C[C@@H]3Cl)CC1`, the CC50 at 48 h in data set [1] amounted to 840 µM. Besides, the selectivity ratio was found to be 73 in data set [2] and 1 in data set [6]. Moreover, the values for the concentration giving a half-maximal response (EC50) in data set [3] and in data set [5] were 12 µM and more than 255 µM, respectively. For the same compound, the CC50 at 72 h in data set [4] came to 255 µM.

Take `Nc1ncnc2c1ncn2[C@H]1C[C@H]2[C@H](CO)[C@@H]1C[C@@H]2Cl`: the CC50 at 48 h in data set [1] is more than 1120 µM. Besides, the selectivity ratio in data set [2] is more than 150; in data set [6], 3. Moreover, the EC50 in data set [3] was 8 µM; in data set [5], more than 112 µM. In addition, the CC50 at 72 h in data set [4] is 332 µM.

Regarding `OC[C@H]1[C@@H]2C[C@H](n3cnc4c(NC5CC5)ncnc43)[C@H]1C[C@@H]2Cl`, the CC50 at 48 h in data set [1] turned out to be 1130 µM. The selectivity ratio in data set [2] was determined as 151; in data set [6], 15. Further, the values for the EC50 in data set [3] and in data set [5] were 8 µM and 17 µM, respectively. Also, in data set [4], the CC50 at 72 h amounted to 247 µM.

As for `OC[C@H]1[C@@H]2C[C@H](n3cnc4c(NC5CCCC5)ncnc43)[C@H]1C[C@@H]2Cl`, the CC50 at 48 h in data set [1] is 529 µM. Also, the selectivity ratio came out at 36 in data set [2] and 1 in data set [6]. Also, the EC50 in data set [3] is 15 µM; in data set [5] it was more than 30 µM. Also, the CC50 at 72 h in data set [4] stood at 27 µM.

Take `CN(C)c1ncnc2c1ncn2[C@H]1C[C@H]2[C@H](CO)[C@@H]1C[C@@H]2Cl`: in data set [1], the CC50 at 48 h amounted to 929 µM. For the same compound, the results for the selectivity ratio in data set [2] and in data set [6] were 8 and 9, respectively. In addition, the EC50 in data set [3] amounted to 112 µM; in data set [5], 28 µM. Moreover, in data set [4], the CC50 at 72 h worked out at 235 µM.

As for `CCN(CC)c1ncnc2c1ncn2[C@H]1C[C@H]2[C@H](CO)[C@@H]1C[C@@H]2Cl`, the CC50 at 48 h in data set [1] was 385 µM. Moreover, the selectivity ratio stood at 18 in data set [2] and 2 in data set [6]. The EC50 was 22 µM in data set [3] and more than 94 µM in data set [5]. In addition, the CC50 at 72 h in data set [4] was 182 µM.

As for `O=c1ccn([C@H]2C[C@H]3[C@H](CO)[C@@H]2C[C@@H]3Cl)c(=O)[nH]1`, the CC50 at 48 h in data set [1] was more than 1210 µM. The values for the selectivity ratio in data set [2] and in data set [6] were more than 19 and 1, respectively. The figures for the EC50 in data set [3] and in data set [5] were 64 µM and more than 367 µM, respectively. Further, the CC50 at 72 h in data set [4] was 172 µM.

Consider `OC[C@H]1[C@@H]2C[C@H](n3cnc4c(NCc5ccncc5)ncnc43)[C@H]1C[C@@H]2Cl`, for which the CC50 at 48 h in data set [1] is 712 µM. Also, the values for the selectivity ratio in data set [2] and in data set [6] were 3 and 2, respectively. Moreover, the values for the EC50 in data set [3] and in data set [5] were 250 µM and more than 84 µM, respectively. Moreover, the CC50 at 72 h in data set [4] was 166 µM.

On to `OC[C@H]1[C@@H]2C[C@H](n3cnc4c(NCc5cccnc5)ncnc43)[C@H]1C[C@@H]2Cl`, for which the CC50 at 48 h in data set [1] is 554 µM. Also, the selectivity ratio in data set [2] came out at 5; in data set [6], 2. For the same compound, the EC50 is 122 µM in data set [3] and more than 86 µM in data set [5]. The CC50 at 72 h in data set [4] stood at 204 µM.

Regarding `OC[C@H]1[C@@H]2C[C@H](n3cnc4c(NCCc5ccc(O)cc5)ncnc43)[C@H]1C[C@@H]2Cl`, in data set [1], the CC50 at 48 h was more than 795 µM. The selectivity ratio in data set [2] is more than 16; in data set [6] it was 6. Also, the EC50 in data set [3] turned out to be 48 µM; in data set [5], 18 µM. Also, the CC50 at 72 h in data set [4] came out at 108 µM.

Turning to `OC[C@H]1[C@@H]2C[C@H](n3cnc4c(NC5CCCCC5)ncnc43)[C@H]1C[C@@H]2Cl`, the CC50 at 48 h in data set [1] came out at 528 µM. The selectivity ratio was 6 in data set [2] and 1 in data set [6]. Besides, the EC50 in data set [3] is 91 µM; in data set [5], more than 11 µM. In addition, the CC50 at 72 h in data set [4] is 14 µM.

Regarding `OC[C@H]1[C@@H]2C[C@H](n3cnc4c(N5CCOCC5)ncnc43)[C@H]1C[C@@H]2Cl`, the CC50 at 48 h in data set [1] amounted to 997 µM. Besides, the values for the selectivity ratio in data set [2] and in data set [6] were 54 and 1, respectively. For the same compound, the figures for the EC50 in data set [3] and in data set [5] were 19 µM and more than 90 µM, respectively. In data set [4], the CC50 at 72 h worked out at 97 µM.

`Cc1cn([C@H]2C[C@H]3[C@H](CO)[C@@H]2C[C@@H]3Cl)c(=O)[nH]c1=O`: the CC50 at 48 h in data set [1] was more than 1160 µM. The selectivity ratio in data set [2] is more than 3; in data set [6], 1. Moreover, the EC50 in data set [3] was 352 µM; in data set [5], more than 352 µM. Also, in data set [4], the CC50 at 72 h was 57 µM.

Turning to `CCN(CC)CCCNc1ncnc2c1ncn2[C@H]1C[C@H]2[C@H](CO)[C@@H]1C[C@@H]2Cl`, the CC50 at 48 h in data set [1] is 664 µM. The figures for the selectivity ratio in data set [2] and in data set [6] were less than 3 and 2, respectively. Besides, the concentration for a half-maximal effect (EC50) in data set [3] is more than 245 µM; in data set [5] it was more than 81 µM. Further, in data set [4], the CC50 at 72 h worked out at 137 µM.
